Data reported in PMC9139167, “Rational Discovery of Antiviral Whey Protein-Derived Small Peptides Targeting the SARS-CoV-2 Main Protease” (Biomedicines, 2022).
Where a SMILES comes first, the peptide text is derived from it. The star is where a group is joined. Cbz = O=C(OCc1ccccc1)*

Legend:
[1] = target: SARS-CoV-2 3CL Protease (Severe acute respiratory syndrome coronavirus 2, UniProt P0DTD1); assay: biochemical
[2] = system: DPP-4; conditions: ref [33],[34]; cited from earlier work
From the text: Recently, we investigated ACE inhibitory activity by peptide sequences, derived from the enzymatic hydrolysis of whey proteins and predicted by molecular docking and related prioritization studies.

[3] = system: Gram-positive bacteria; conditions: ref [33],[34]; cited from earlier work
[4] = system: 3C^pro; conditions: ref [56]; cited from earlier work
[5] = read-out: Relative Inhibition (RI %)

## CC[C@H](C)[C@H](N)C(=O)N[C@@H](C)C(=O)N[C@@H](CCC(=O)O)C(=O)N[C@@H](CCCCN)C(=O)O [IAEK] (H-IAEK-OH)
[1]
  IC50: 154 µM
[1]; [5]
  inhibition at 0.036 µM: 34.6 ± 1.13%
  inhibition at 0.36 µM: 40.5 ± 1.26%
  inhibition at 3.6 µM: 46.5 ± 3.48%
  inhibition at 36.6 µM: 46.6 ± 3.79%
  inhibition at 109.8 µM: 49.7 ± 3.16%
  inhibition at 183 µM: 87.7 ± 1.61%
  inhibition at 366 µM: 84 ± 3.39%

## IPAVFK
[2]
  DPP-4 inhibitory activity: exhibited DPP-4 inhibitory activity
[3]
  antimicrobial activity: antimicrobial activity against Gram-positive bacteria

## Cbz-Leu-Phe-Gln-aldehyde [tripeptide aldehydes]
[4]
  inhibitory activity against 3C^pro: poor inhibitory activity
